Test results taken from publication PMC11939470, “The Cyclic Antimicrobial Peptide C-LR18 Has Enhanced Antibacterial Activity, Improved Stability, and a Longer Half-Life Compared to the Original Peptide” (Antibiotics, 2025).
Where a SMILES comes first, the peptide text is derived from it. Bridges are numbered along the chain shown (N, C = ends).

How the values were obtained:
KM mice = assay: Acute toxicity (LD50) in mice, tail vein; format: in vivo; settings: for Number of Animal Deaths (r) / Survival Rate (q): 10 mice
Procedure: The health status of mice was observed, and the mortality data of 5 groups of mice were recorded. The LD50 and 95% confidence limit of C-LR18 for mice were calculated according to the following formula:LD50 = log − 1[Xm − i(ΣP − 0.5)](3) (4) SX50=i∑pq/n 95% Confidence limits of LD50 = log − 1(log − 1LD50 ± 1.96SX50)(5)
Xm: dose pair value of maximum dose group, i: the difference between the dose pairs of two adjacent groups, P: animal mortality in each group, ΣP: the sum of the mortality of each group of animals, n: number of animals per group, q: survival rate per dose group, […].

E. coli Y1 = assay: Bacterial load in liver and spleen of mice; format: in vivo; settings: 7.5 mg/kg tail vein 1 h after ip E. coli Y1, one mouse every 24 h
Procedure: One hour after the mice were intraperitoneally injected with 0.5 mL of E. coli Y1 suspension (10^9 CFU/mL), C-LR18 was injected into the mice at a dose of 7.5 mg/kg through the tail vein. The normal saline group was used as negative control, and the polymyxin B group (1 mg/kg) was used as positive control. After that, one mouse was taken every 24 h, sacrificed via cervical dislocation, and the liver and spleen were removed, weighed, and added to PBS buffer for grinding at 3000 r/min for 2 min. The abrasive solution was diluted with sterile PBS (1:10,000), and 0.1 mL diluent was evenly coated in solid MH medium and cultured at 37 °C overnight. Colony counting was performed on the samples, and the bacterial colonization amount in liver and spleen was calculated.

E. coli ATCC25922 = assay: Impact of temperature and pH on MIC; format: physicochemical; settings: after 100 °C for 30 min, acid treatment (pH4) 1 h, alkali treatment (pH10) 1 h
Procedure: The MIC test was performed using the method recommended by the National Committee for Clinical Laboratory Standards (NCCLS) Standards and Guidelines, and the method was modified according to the characteristics of antimicrobial peptides. The bacteria were cultured at 37 °C for 16 h, and the microbial suspension was diluted to a final concentration of 5 × 10^5 CFU/mL. Then, 50 µL of bacterial solution was mixed with 50 µL of MHB containing different concentrations peptides (0.5–256 µM) in a 96-well plate. […] The assays were performed three times. Geometric mean MIC represents the average MIC of the peptide against all the tested strains.
The impact of temperature on peptides’ antimicrobial activity was also tested.

CC(C)C[C@@H]1NC(=O)[C@H](CCCNC(=N)N)NC(=O)[C@H](CCCNC(=N)N)NC(=O)[C@H](CC(C)C)NC(=O)[C@H](CC(C)C)NC(=O)[C@H](CCCNC(=N)N)NC(=O)[C@H](CC(C)C)NC(=O)[C@@H]2CCCN2C(=O)[C@H](CCCNC(=N)N)NC(=O)[C@H](CCCNC(=N)N)NC(=O)[C@@H]2CCCN2C(=O)[C@H](CC(C)C)NC(=O)[C@H](CCCNC(=N)N)NC(=O)[C@H](CC(C)C)NC(=O)[C@H](CC(C)C)NC(=O)[C@H](CCCNC(=N)N)NC(=O)[C@H](CCCNC(=N)N)NC(=O)[C@H](CC(C)C)NC(=O)[C@@H](N)CSSC[C@@H](C(=O)O)NC1=O [C-LR18] (H-CLRRLLRLPRRPLRLLRRLC-OH; disulfide 1-20; N-terminus and C-terminus assumed)
Number of Animal Deaths (r) (KM mice; 36 mg/kg tail vein): 0 | Survival Rate (q) (KM mice; 36 mg/kg tail vein): 1 | Number of Animal Deaths (r) (KM mice; 44 mg/kg tail vein): 2 | Survival Rate (q) (KM mice; 44 mg/kg tail vein): 0.8 | Number of Animal Deaths (r) (KM mice; 53 mg/kg tail vein): 5 | Survival Rate (q) (KM mice; 53 mg/kg tail vein): 0.5 | Number of Animal Deaths (r) (KM mice; 64 mg/kg tail vein): 7 | Survival Rate (q) (KM mice; 64 mg/kg tail vein): 0.3 | Number of Animal Deaths (r) (KM mice; 77 mg/kg tail vein): 10 | Survival Rate (q) (KM mice; 77 mg/kg tail vein): 0 | 95% confidence limit of LD50 (KM mice; Kunming mice, tail vein): 28.0 to 50.1 mg/kg | bacterial colonization in liver and spleen (E. coli Y1): significantly less than that in the negative control group | expansion of MIC (E. coli ATCC25922): 2 times
